# Where two headings read alike, the source gives them in different places.
# Legend:
# Experiment in all cases: Secondary dose-response HTS, Cell Titer Glo; call rule not given here
# Type in all cases: cell-based, human
# ML2 = conditions: secondary high-throughput screen, ML-2; for EC50: read-out: average effective concentration, ML-2
# CHRF288-11 = conditions: secondary high-throughput screen, CHRF288-11; for EC50: read-out: average effective concentration, CHRF288-11
# U937 = conditions: secondary high-throughput screen, U937; for EC50: read-out: average effective concentration, U937
# CMS = conditions: for EC50: read-out: average effective concentration, CMS
# MV4-11 = conditions: secondary high-throughput screen, MV4-11; for EC50: Homo sapiens, read-out: average effective concentration, MV4-11
# CMK = conditions: CMK; for EC50: read-out: average effective concentration, CMK
# MOLM-13 = conditions: secondary high-throughput screen, MOLM-13; for EC50: read-out: average effective concentration, MOLM-13
# M07e = conditions: secondary high-throughput screen; for EC50: Homo sapiens, M-07e, read-out: average effective concentration, M07e
# [1] = secondary high-throughput screen, CMS
# [2] = secondary high-throughput screen
# [3] = Homo sapiens, HTS, secondary high-throughput screen, CMS
# [4] = Homo sapiens, secondary high-throughput screen
"EC50 (U937; Homo sapiens, U-937) [µM]",EC50 (MV4-11) [µM],EC50 (MOLM-13; Homo sapiens) [µM],Molecule,"average effective concentration, CHRF288-11 (CHRF288-11)","average effective concentration, U937 (U937)","average effective concentration, CMS (CMS; [1])","average effective concentration, MV4-11 (MV4-11)","average effective concentration, CMK (CMK; [2])","average effective concentration, MOLM-13 (MOLM-13)","average effective concentration, M07e (M07e; M07e)","average effective concentration, ML-2 (ML2)",EC50 (ML2; Homo sapiens) [µM],"EC50 (CHRF288-11; Homo sapiens, HTS) [µM]",EC50 (M07e; M07e) [µM],further results
–,–,–,C[n+]1c2cc(N)ccc2cc2ccc(N)cc21,Inactive,Inactive,Inactive,Inactive,Inactive,Inactive,Inactive,–,–,–,–,EC50 (ML2): 7.7 µM
–,–,–,NC(=O)C1CCCc2c1[nH]c1ccc(Cl)cc21 (stereo not drawn),Inactive,Inactive,Inactive,Inactive,Inactive,Inactive,Inactive,Inactive,–,–,–,–
–,–,–,1-NA-PP1 [Compound 1-NA-PP1],Inactive,Inactive,Inactive,Inactive,–,Inactive,–,Inactive,–,–,–,"EC50 (CMK; [2]): 2.2 µM; average effective concentration, M07e (M07e; […]): Inactive"
–,–,–,CN(N=O)C(=O)N[C@H]1C(O)O[C@H](CO)[C@@H](O)[C@@H]1O (mixture of isomers) [STREPTOZOSIN],Inactive,Inactive,Inactive,Inactive,Inactive,Inactive,Inactive,Inactive,–,–,–,–
–,–,–,"CC1CCCCCC(=O)c2c(O)cc(O)cc2CC(=O)O1 (single isomer, unassigned; (-)) [(-)-CURVULARIN]",–,–,–,Inactive,–,Inactive,–,–,–,–,–,"EC50 (CHRF288-11): 4.7 µM; EC50 (U937): 0.82 µM; EC50 (CMS; [1]): 0.32 µM; EC50 (CMK; [2]): 1.5 µM; average effective concentration, M07e (M07e; […]): Inactive"
–,–,–,"O=C(O)c1ccnc(C(=O)O)c1 [2,4-PDAC]",Inactive,Inactive,Inactive,Inactive,Inactive,Inactive,Inactive,Inactive,–,–,–,–
6.2,5.4,5.6,CN(C)C/C=C/C(=O)Nc1cc2c(Nc3ccc(F)c(Cl)c3)ncnc2cc1O[C@H]1CCOC1 [AFATINIB],–,–,–,–,–,–,–,–,7,6.9,> 10,EC50 (CMS; [3]): 8.6 µM; EC50 (CMK; [4]): 3.6 µM
–,–,–,[NH4+].[NH4+].[SH-].[SH-].[S]=[Mo]=[S] [AMMONIUM TETRATHIOMOLYBDATE],Inactive,Inactive,Inactive,Inactive,–,Inactive,Inactive,Inactive,–,–,–,–
–,–,–,O=[As]O[As]=O (stereo not drawn) [ARSENIC TRIOXIDE],Inactive,Inactive,Inactive,Inactive,–,Inactive,–,Inactive,–,–,–,"average effective concentration, M07e (M07e; […]): Inactive"
2,3,2.5,COc1cc2nc(N3CCCN(C)CC3)nc(NC3CCN(Cc4ccccc4)CC3)c2cc1OC [BIX 01294],–,–,–,–,–,–,–,–,3.6,4.4,> 10,EC50 (CMS; [3]): > 10 µM
–,–,–,COCCCn1c(N)c(C(=O)NC2CCCC2)c2nc3ccccc3nc21 [CAY10591],Inactive,Inactive,Inactive,Inactive,Inactive,Inactive,Inactive,Inactive,–,–,–,–
–,–,–,O=C(NC(NC(=S)Nc1ccc(F)c([N+](=O)[O-])c1)C(Cl)(Cl)Cl)C(c1ccccc1)c1ccccc1 (stereo not drawn) [CGK 733],Inactive,Inactive,Inactive,Inactive,Inactive,Inactive,Inactive,Inactive,–,–,–,–
7.5,5.2,3.4,Cc1cc(C2CCCCC2)n(O)c(=O)c1 [CICLOPIROX],–,–,–,–,–,–,–,–,2.4,7.9,7.7,EC50 (CMS; [3]): 3.9 µM; EC50 (CMK; [4]): 4.7 µM
5,0.072,0.1,CC1(COc2ccc3c(c2)ncn3-c2ccc3cccc(N4CCC(N)CC4)c3n2)COC1 [CRENOLANIB],–,–,–,–,–,–,–,–,3.6,0.77,> 10,"EC50 (CMS; Homo sapiens, HTS): 8.2 µM; EC50 (CMK; Homo sapiens): 6.6 µM"
> 10,3.9,3.9,C[C@@H](Oc1cc(-c2cnn(C3CCNCC3)c2)cnc1N)c1c(Cl)ccc(F)c1Cl [CRIZOTINIB],–,–,–,–,–,–,–,–,4.8,7.8,> 10,EC50 (CMS; [3]): 8.3 µM; EC50 (CMK; [4]): 4.2 µM
–,–,–,CCCCCCCCCCCCCCCc1cccc(OCC)c1C(=O)Nc1ccc(Cl)c(C(F)(F)F)c1 [CTPB],Inactive,Inactive,Inactive,Inactive,Inactive,–,Inactive,Inactive,–,–,–,EC50 (MOLM-13): 0.9 µM
1,0.25,2.2,Nc1ncnc2c1nc(Cl)n2[C@@H]1O[C@H](CO)[C@@H](O)[C@H]1O [Compound 8-CHLOROADENOSINE],–,–,–,–,–,–,–,–,2.8,1.2,0.001,"EC50 (CMS; Homo sapiens, HTS): 4.4 µM"
–,–,–,NC1CC1c1cc(F)cc(F)c1OCc1ccccc1 (stereo not drawn) [Compound S2101],Inactive,Inactive,Inactive,Inactive,–,Inactive,Inactive,Inactive,–,–,–,–
–,–,–,N#CC(=C(/N)Sc1ccccc1N)/C(C#N)=C(/N)Sc1ccccc1N [Compound U0126],Inactive,Inactive,Inactive,Inactive,Inactive,Inactive,Inactive,Inactive,–,–,–,–
2.3,2.8,8.3,C[C@H]1[C@@H](O)O[C@@H]2O[C@@]3(C)CC[C@H]4[C@H](C)CC[C@@H]1[C@@]24OO3 [DIHYDROARTEMISININ],–,–,–,–,–,–,–,–,9,9.5,> 10,"EC50 (CMS; Homo sapiens, HTS): > 10 µM; EC50 (CMK; Homo sapiens): > 10 µM"
–,–,–,OCCN1CCN(CCCN2c3ccccc3Sc3ccc(C(F)(F)F)cc32)CC1 [FLUFENAZINE],Inactive,Inactive,Inactive,Inactive,Inactive,Inactive,Inactive,–,–,–,–,–
–,–,–,O=C(O)c1ccc(O)c2ncccc12 [IOX 1],Inactive,Inactive,Inactive,Inactive,–,Inactive,Inactive,Inactive,–,–,–,–
